For this assay, the target named is c-Met (Homo sapiens, UniProt P08581). Put plainly: c-Met inhibitory assay using AlphaScreen (Method A). Format: biochemical. Further details: purchased Carna bio Co., Ltd 08-051. The following applies: ATP 20 μM. Here is the method: Inhibitory activity of compounds against c-Met kinase was determined through the following procedures. Method A) c-Met inhibitory assay using AlphaScreen™
A biotinylated peptide including a phosphorylated site of Pyk2 (Tyr402), which is reported as a bio-substrate in Clin. Cancer Res. vol. […] The mixture was allowed to react at room temperature for 20 minutes. EDTA was added to the reaction mixture to a final concentration of 50 mM, to thereby terminate reaction. […] The reaction was done for one hour at room temperature. Thereafter, the fluorescence intensity from the reaction mixture was measured using a multi-label counter (EnVision™, Perkin Elmer).
(In general: Alpha assays give light when donor and acceptor beads are brought close together.)

Counter-ions that a name gives are not always drawn.

c-Met, sequence (P08581 956-1390 limits assumed): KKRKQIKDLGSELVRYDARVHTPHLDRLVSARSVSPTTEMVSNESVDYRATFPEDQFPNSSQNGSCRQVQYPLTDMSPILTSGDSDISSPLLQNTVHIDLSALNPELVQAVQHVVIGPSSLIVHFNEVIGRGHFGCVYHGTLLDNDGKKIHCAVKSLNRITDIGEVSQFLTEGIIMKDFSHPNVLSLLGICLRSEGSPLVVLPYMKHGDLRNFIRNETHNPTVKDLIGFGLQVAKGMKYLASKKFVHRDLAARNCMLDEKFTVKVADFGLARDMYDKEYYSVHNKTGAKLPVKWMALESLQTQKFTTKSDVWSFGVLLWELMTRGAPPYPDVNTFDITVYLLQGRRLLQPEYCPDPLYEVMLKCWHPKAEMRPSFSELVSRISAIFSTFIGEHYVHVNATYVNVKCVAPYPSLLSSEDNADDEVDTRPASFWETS

As for `COc1cc2nccc(Oc3ccc(NC(=S)NC(=O)Cc4ccccc4)cc3F)c2cc1C(=O)N1CCC(O)C1` (stereo not shown) [Example 52, N-(3-Fluoro-4-(6-(3-hydroxypyrrolidine-1-carbonyl)-7-methoxyquinolin-4-yloxy)phenylcarbamothioyl)-2-phenylacetamide], the IC50 came out at 142 nM.

Compound `COc1cc2nccc(Oc3ccc(NC(=S)NC(=O)Cc4ccccc4)cc3F)c2cc1C(=O)NC1CCNCC1` [Example 14, 4-(2-Fluoro-4-(3-(2-phenylacetyl)thioureido)phenoxy)-7-methoxy-N-(piperidin-4-yl)quinoline-6-carboxamide dihydrochloride] registered an IC50 of 157 nM. Under `COc1cc2nccc(Oc3ccc(NC(=S)NC(=O)Cc4ccccc4)cc3F)c2cc1C(=O)N1CCC(N2CCCC2)CC1` [Example 51, N-(3-Fluoro-4-(7-methoxy-6-(4-(pyrrolidin-1-yl)piperidine-1-carbonyl)quinolin-4-yloxy)phenylcarbamothioyl)-2-phenylacetamide] stands 134 nM; under `CNC(=O)c1cc2c(Oc3ccc(NC(=S)NC(=O)Cc4ccccc4)cc3F)ccnc2cc1OC` [Example 6, 4-(2-Fluoro-4-(3-(2-phenylacetyl)thioureido)phenoxy)-7-methoxy-N-methylquinoline-6-carboxamide], 104 nM. Under `COc1cc2nccc(Oc3ccc(NC(=S)NC(=O)Cc4ccccc4)cc3F)c2cc1C(=O)NCCNC(C)=O` [Example 11, N-(2-Acetamidoethyl)-4-(2-fluoro-4-(3-(2-phenylacetyl)thioureido)phenoxy)-7-methoxyquinoline-6-carboxamide] stands 145 nM; under `COc1cc2nccc(Oc3ccc(NC(=S)NC(=O)Cc4ccccc4)cc3F)c2cc1C(=O)Nc1ccccc1C` [Example 28, 4-(2-Fluoro-4-(3-(2-phenylacetyl)thioureido)phenoxy)-7-methoxy-N-o-tolylquinoline-6-carboxamide], 94 nM; under `COc1cc2nccc(Oc3ccc(NC(=S)NC(=O)Cc4ccccc4)cc3F)c2cc1C(=O)NCC(O)c1nnn(C)n1` (stereo not shown) [Example 30, 4-(2-Fluoro-4-(3-(2-phenylacetyl)thioureido)phenoxy)-N-(2-hydroxy-2-(2-methyl-2H-tetrazol-5-yl)ethyl)-7-methoxyquinoline-6-carboxamide], 40 nM. Then `COc1cc2nccc(Oc3ccc(NC(=S)NC(=O)Cc4ccccc4)cc3F)c2cc1C(=O)NCCOCCO` [Example 10, 4-(2-Fluoro-4-(3-(2-phenylacetyl)thioureido)phenoxy)-N-(2-(2-hydroxyethoxy)ethyl)-7-methoxyquinoline-6-carboxamide], with 68 nM; and `COc1cc2nccc(Oc3ccc(NC(=S)NC(=O)Cc4ccccc4)cc3F)c2cc1C(=O)NCC(=O)N1CCCC1` [Example 17, 4-(2-Fluoro-4-(3-(2-phenylacetyl)thioureido)phenoxy)-7-methoxy-N-(2-oxo-2-(pyrrolidin-1-yl)ethyl)quinoline-6-carboxamide], with 30 nM; and `COc1cc2nccc(Oc3ccc(NC(=S)NC(=O)Cc4ccccc4)cc3F)c2cc1C(=O)NCC1COC(C)(C)O1` (stereo not shown) [Example 2, N-((2,2-Dimethyl-1,3-dioxolan-4-yl)methyl)-4-(2-fluoro-4-(3-(2-phenylacetyl)thioureido)phenoxy)-7-methoxyquinoline-6-carboxamide], with 167 nM. Take `COc1cc2nccc(Oc3ccc(NC(=S)NC(=O)Cc4ccccc4)cc3F)c2cc1C(=O)NCCCOC(C)C` [Example 1, 4-(2-Fluoro-4-(3-(2-phenylacetyl)thioureido)phenoxy)-N-(3-isopropyloxypropyl)-7-methoxyquinoline-6-carboxamide]: the IC50 was found to be 210 nM. This IC50 and that of the compound before are within 1.5-fold of each other.

Compound `COc1cc2nccc(Oc3ccc(NC(=S)NC(=O)Cc4ccccc4)cc3F)c2cc1C(=O)NCC1(O)CCCCC1` [Example 25, 4-(2-Fluoro-4-(3-(2-phenylacetyl)thioureido)phenoxy)-N-((1-hydroxycyclohexyl)methyl)-7-methoxyquinoline-6-carboxamide] showed an IC50 of 72 nM. Under `COc1cc2nccc(Oc3ccc(NC(=S)NC(=O)Cc4ccccc4)cc3F)c2cc1C(=O)NC1CCCCNC1=O` (stereo not shown) [Example 16, 4-(2-Fluoro-4-(3-(2-phenylacetyl)thioureido)phenoxy)-7-methoxy-N-(2-oxoazepan-3-yl)quinoline-6-carboxamide] stands 177 nM.

In the case of `COc1cc2nccc(Oc3ccc(NC(=S)NC(=O)Cc4ccccc4)cc3F)c2cc1C(=O)NCC(O)CO` (stereo not shown) [Example 3, N-(2,3-Dihydroxypropyl)-4-(2-fluoro-4-(3-(2-phenylacetyl)thioureido)phenoxy)-7-methoxyquinoline-6-carboxamide], the IC50 was found to be 62 nM. This IC50 lies about 2.9-fold lower than the previous one. Then `COc1cc2nccc(Oc3ccc(NC(=S)NC(=O)Cc4ccccc4)cc3F)c2cc1C(=O)NCC1(O)CCOCC1` [Example 26, 4-(2-Fluoro-4-(3-(2-phenylacetyl)thioureido)phenoxy)-N-((4-hydroxytetrahydro-2H-pyran-4-yl)methyl)-7-methoxyquinoline-6-carboxamide], with 125 nM. `CCN(CC)CCNC(=O)c1cc2c(Oc3ccc(NC(=S)NC(=O)Cc4ccccc4)cc3F)ccnc2cc1OC` [Example 8, N-(2-(Diethylamino)ethyl)-4-(2-fluoro-4-(3-(2-phenylacetyl)thioureido)phenoxy)-7-methoxyquinoline-6-carboxamide] gave an IC50 of 106 nM.

The compound `COc1cc2nccc(Oc3ccc(NC(=S)NC(=O)Cc4ccccc4)cc3F)c2cc1C(=O)NCc1cccnc1` [Example 4, 4-(2-Fluoro-4-(3-(2-phenylacetyl)thioureido)phenoxy)-7-methoxy-N-(pyridin-3-ylmethyl)quinoline-6-carboxamide] registered an IC50 of 140 nM.

On to `COc1cc2nccc(Oc3ccc(NC(=S)NC(=O)Cc4ccccc4)cc3F)c2cc1C(=O)NC(CO)CO` [Example 12, N-(1,3-Dihydroxypropan-2-yl)-4-(2-fluoro-4-(3-(2-phenylacetyl)thioureido)phenoxy)-7-methoxyquinoline-6-carboxamide], for which the IC50 was determined as 52 nM. Then `COc1cc2nccc(Oc3ccc(NC(=S)NC(=O)Cc4ccccc4)cc3F)c2cc1C(=O)NCCN1CCOCC1` [Example 9, 4-(2-Fluoro-4-(3-(2-phenylacetyl)thioureido)phenoxy)-7-methoxy-N-(2-morpholinoethyl)quinoline-6-carboxamide], with 102 nM. Then `COc1cc2nccc(Oc3ccc(NC(=S)NC(=O)Cc4ccccc4)cc3F)c2cc1C(=O)NC1CCN(C(C)=O)CC1` [Example 18, N-(1-Acetylpiperidin-4-yl)-4-(2-fluoro-4-(3-(2-phenylacetyl)thioureido)phenoxy)-7-methoxyquinoline-6-carboxamide], with 300 nM; and `COCCNC(=O)c1cc2c(Oc3ccc(NC(=S)NC(=O)Cc4ccccc4)cc3F)ccnc2cc1OC` [Example 7, 4-(2-Fluoro-4-(3-(2-phenylacetyl)thioureido)phenoxy)-7-methoxy-N-(methoxyethyl)quinoline-6-carboxamide], with 50 nM. Consider `CCC(O)CNC(=O)c1cc2c(Oc3ccc(NC(=S)NC(=O)Cc4ccc(F)cc4)cc3F)ccnc2cc1OC` (stereo not shown) [Example 23, 4-(2-Fluoro-4-(3-(2-(4-fluorophenyl)acetyl)thioureido)phenoxy)-N-(2-hydroxybutyl)-7-methoxyquinoline-6-carboxamide], for which the midpoint of inhibition, the IC50, lay at 250 nM.

As a reminder, the IC50 is the concentration that inhibits the measured activity by half. Low values mean greater potency, high ones weaker potency.

(Values after patent publication US8304427B2, “Acylthiourea compound or salt thereof, and use thereof” (Taiho Pharmaceutical Co., Ltd., priority 2008, dated 2012).)
